Measurements as given in PubChem BioAssay AID1963838 (Molecular Pharmacology Branch, DTP, NCI, 2024).
pIC50: −log10 of the molar value.

Tested on: 855422-203-R-J1-PDC complex spheroid viability
Test: Anticancer human tumor 855422-203-R-J1-PDC patient-derived bladder carcinoma cell line growth inhibition [POLQ]
Details: for pIC50: curve of first compound; for viability, T/C: stronger effect = lower value
Summary of the method: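 Three-cell-type spheroids modelling solid tumor plus stroma served as the readout system; POL inhibitors were tested individually and in combination, concentration ranges set by clinical Cmax where known.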

[1] = second compound 0.0316 µM, first compound 0.0316 µM
[2] = second compound 0.0316 µM, first compound 0.1 µM
[3] = second compound 0.0316 µM, first compound 0.316 µM
[4] = second compound 0.0316 µM, first compound 1 µM
[5] = second compound 0.0316 µM, first compound 3.16 µM
[6] = second compound 0.0316 µM, first compound 10 µM
[7] = second compound 0.1 µM, first compound 0.0316 µM
[8] = second compound 0.1 µM, first compound 0.1 µM
[9] = second compound 0.1 µM, first compound 0.316 µM
[10] = second compound 0.1 µM, first compound 1 µM
[11] = second compound 0.1 µM, first compound 3.16 µM
[12] = second compound 0.1 µM, first compound 10 µM
[13] = second compound 0.316 µM, first compound 0.0316 µM
[14] = second compound 0.316 µM, first compound 0.1 µM
[15] = second compound 0.316 µM, first compound 0.316 µM
[16] = second compound 0.316 µM, first compound 1 µM
[17] = second compound 0.316 µM, first compound 3.16 µM
[18] = second compound 0.316 µM, first compound 10 µM
[19] = second compound 1 µM, first compound 0.0316 µM
[20] = second compound 1 µM, first compound 0.1 µM
[21] = second compound 1 µM, first compound 0.316 µM
[22] = second compound 1 µM, first compound 1 µM
[23] = second compound 1 µM, first compound 3.16 µM
[24] = second compound 1 µM, first compound 10 µM
[25] = second compound 3.16 µM, first compound 0.0316 µM
[26] = second compound 3.16 µM, first compound 0.1 µM
[27] = second compound 3.16 µM, first compound 0.316 µM
[28] = second compound 3.16 µM, first compound 1 µM
[29] = second compound 3.16 µM, first compound 3.16 µM
[30] = second compound 3.16 µM, first compound 10 µM
[31] = second compound 10 µM, first compound 0.0316 µM
[32] = second compound 10 µM, first compound 0.1 µM
[33] = second compound 10 µM, first compound 0.316 µM
[34] = second compound 10 µM, first compound 1 µM
[35] = second compound 10 µM, first compound 3.16 µM
[36] = second compound 10 µM, first compound 10 µM
[37] = second compound 0.0316 µM, first compound 0.00316 µM
[38] = second compound 0.0316 µM, first compound 0.01 µM
[39] = second compound 0.1 µM, first compound 0.00316 µM
[40] = second compound 0.1 µM, first compound 0.01 µM
[41] = second compound 0.316 µM, first compound 0.00316 µM
[42] = second compound 0.316 µM, first compound 0.01 µM
[43] = second compound 1 µM, first compound 0.00316 µM
[44] = second compound 1 µM, first compound 0.01 µM
[45] = second compound 3.16 µM, first compound 0.00316 µM
[46] = second compound 3.16 µM, first compound 0.01 µM
[47] = second compound 10 µM, first compound 0.00316 µM
[48] = second compound 10 µM, first compound 0.01 µM
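Also: spheroids exposed to compounds for seven days before readout.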

CC1COCCN1c1cc(C2(S(C)(=N)=O)CC2)nc(-c2ccnc3[nH]ccc23)n1 (stereo not drawn) + COC1C(OC(N)=O)C(O)C(Oc2ccc3c(O)c(NC(=O)c4ccc(O)c(CC=C(C)C)c4)c(=O)oc3c2C)OC1(C)C
pIC50 (second compound 0.0316 µM): 5.61 | pIC50 (second compound 0.1 µM): 5.62 | pIC50 (second compound 0.316 µM): 5.58 | pIC50 (second compound 1 µM): 5.57 | pIC50 (second compound 3.16 µM): 5.59 | pIC50 (second compound 10 µM): 5.64 | viability, T/C [1]: 110% | viability, T/C [2]: 118% | viability, T/C [3]: 122% | viability, T/C [4]: 97.5% | viability, T/C [5]: 36.7% | viability, T/C [6]: 12% | viability, T/C [7]: 100% | viability, T/C [8]: 99.2% | viability, T/C [9]: 118% | viability, T/C [10]: 111% | viability, T/C [11]: 31.6% | viability, T/C [12]: 12.8% | viability, T/C [13]: 110% | viability, T/C [14]: 103% | viability, T/C [15]: 117% | viability, T/C [16]: 111% | viability, T/C [17]: 39% | viability, T/C [18]: 11.1% | viability, T/C [19]: 113% | viability, T/C [20]: 112% | viability, T/C [21]: 126% | viability, T/C [22]: 118% | viability, T/C [23]: 39.5% | viability, T/C [24]: 10.5% | viability, T/C [25]: 125% | viability, T/C [26]: 106% | viability, T/C [27]: 116% | viability, T/C [28]: 112% | viability, T/C [29]: 37.1% | viability, T/C [30]: 12.3% | viability, T/C [31]: 114% | viability, T/C [32]: 103% | viability, T/C [33]: 111% | viability, T/C [34]: 99.9% | viability, T/C [35]: 30.8% | viability, T/C [36]: 10.7%

CCCS(=O)(=O)Nc1ccc(F)c(C(=O)c2c[nH]c3ncc(-c4ccc(Cl)cc4)cc23)c1F + COC1C(OC(N)=O)C(O)C(Oc2ccc3c(O)c(NC(=O)c4ccc(O)c(CC=C(C)C)c4)c(=O)oc3c2C)OC1(C)C
pIC50 (second compound 0.0316 µM): 5.23 | pIC50 (second compound 0.1 µM): 5.23 | pIC50 (second compound 0.316 µM): 5.23 | pIC50 (second compound 1 µM): 5.26 | pIC50 (second compound 3.16 µM): 5.24 | pIC50 (second compound 10 µM): 5.23 | viability, T/C [1]: 112% | viability, T/C [2]: 94.6% | viability, T/C [3]: 113% | viability, T/C [4]: 116% | viability, T/C [5]: 113% | viability, T/C [6]: 0.27% | viability, T/C [7]: 117% | viability, T/C [8]: 108% | viability, T/C [9]: 115% | viability, T/C [10]: 107% | viability, T/C [11]: 106% | viability, T/C [12]: 1.29% | viability, T/C [13]: 118% | viability, T/C [14]: 96.7% | viability, T/C [15]: 114% | viability, T/C [16]: 107% | viability, T/C [17]: 109% | viability, T/C [18]: 1.4% | viability, T/C [19]: 119% | viability, T/C [20]: 117% | viability, T/C [21]: 108% | viability, T/C [22]: 94.2% | viability, T/C [23]: 98.7% | viability, T/C [24]: 0.24% | viability, T/C [25]: 102% | viability, T/C [26]: 111% | viability, T/C [27]: 110% | viability, T/C [28]: 118% | viability, T/C [29]: 103% | viability, T/C [30]: 0.36% | viability, T/C [31]: 108% | viability, T/C [32]: 108% | viability, T/C [33]: 96.2% | viability, T/C [34]: 116% | viability, T/C [35]: 110% | viability, T/C [36]: 0.68%

COc1cccc(OCCCN)c1-c1cc(Nc2cnc(C#N)cn2)n[nH]1 + COC1C(OC(N)=O)C(O)C(Oc2ccc3c(O)c(NC(=O)c4ccc(O)c(CC=C(C)C)c4)c(=O)oc3c2C)OC1(C)C
pIC50 (second compound 0.0316 µM): 7.71 | pIC50 (second compound 0.1 µM): 7.80 | pIC50 (second compound 0.316 µM): 7.70 | pIC50 (second compound 1 µM): 7.80 | pIC50 (second compound 3.16 µM): 7.79 | pIC50 (second compound 10 µM): 7.80 | viability, T/C [37]: 98.3% | viability, T/C [38]: 90% | viability, T/C [1]: 20.3% | viability, T/C [2]: 8.97% | viability, T/C [3]: 6.7% | viability, T/C [4]: 6.14% | viability, T/C [39]: 102% | viability, T/C [40]: 69% | viability, T/C [7]: 22.4% | viability, T/C [8]: 8.69% | viability, T/C [9]: 5.66% | viability, T/C [10]: 4.71% | viability, T/C [41]: 109% | viability, T/C [42]: 101% | viability, T/C [13]: 16.4% | viability, T/C [14]: 7.64% | viability, T/C [15]: 6.06% | viability, T/C [16]: 5.18% | viability, T/C [43]: 118% | viability, T/C [44]: 75.1% | viability, T/C [19]: 13.6% | viability, T/C [20]: 6.95% | viability, T/C [21]: 5.24% | viability, T/C [22]: 5.12% | viability, T/C [45]: 109% | viability, T/C [46]: 74.9% | viability, T/C [25]: 14.5% | viability, T/C [26]: 7.77% | viability, T/C [27]: 5.93% | viability, T/C [28]: 8.32% | viability, T/C [47]: 107% | viability, T/C [48]: 74.2% | viability, T/C [31]: 15% | viability, T/C [32]: 8.46% | viability, T/C [33]: 7.19% | viability, T/C [34]: 4.54%

Cn1ncnc1[C@H]1c2n[nH]c(=O)c3cc(F)cc(c23)N[C@@H]1c1ccc(F)cc1 + COC1C(OC(N)=O)C(O)C(Oc2ccc3c(O)c(NC(=O)c4ccc(O)c(CC=C(C)C)c4)c(=O)oc3c2C)OC1(C)C
pIC50 (second compound 0.0316 µM): < 7.00 | pIC50 (second compound 0.1 µM): < 7.00 | pIC50 (second compound 0.316 µM): < 7.00 | pIC50 (second compound 1 µM): < 7.00 | pIC50 (second compound 3.16 µM): < 7.00 | pIC50 (second compound 10 µM): < 7.00 | viability, T/C (second compound 0.0316 µM, first compound 0.000316 µM): 94.6% | viability, T/C (second compound 0.0316 µM, first compound 0.001 µM): 104% | viability, T/C [37]: 116% | viability, T/C [38]: 106% | viability, T/C [1]: 108% | viability, T/C [2]: 108% | viability, T/C (second compound 0.1 µM, first compound 0.000316 µM): 81.8% | viability, T/C (second compound 0.1 µM, first compound 0.001 µM): 93.8% | viability, T/C [39]: 113% | viability, T/C [40]: 95.3% | viability, T/C [7]: 99.7% | viability, T/C [8]: 96.6% | viability, T/C (second compound 0.316 µM, first compound 0.000316 µM): 106% | viability, T/C (second compound 0.316 µM, first compound 0.001 µM): 106% | viability, T/C [41]: 101% | viability, T/C [42]: 108% | viability, T/C [13]: 95.4% | viability, T/C [14]: 118% | viability, T/C (second compound 1 µM, first compound 0.000316 µM): 110% | viability, T/C (second compound 1 µM, first compound 0.001 µM): 99.7% | viability, T/C [43]: 106% | viability, T/C [44]: 107% | viability, T/C [19]: 103% | viability, T/C [20]: 95.9% | viability, T/C (second compound 3.16 µM, first compound 0.000316 µM): 105% | viability, T/C (second compound 3.16 µM, first compound 0.001 µM): 106% | viability, T/C [45]: 98.2% | viability, T/C [46]: 94.4% | viability, T/C [25]: 95.9% | viability, T/C [26]: 102% | viability, T/C (second compound 10 µM, first compound 0.000316 µM): 108% | viability, T/C (second compound 10 µM, first compound 0.001 µM): 97.2% | viability, T/C [47]: 101% | viability, T/C [48]: 109% | viability, T/C [31]: 100% | viability, T/C [32]: 84%
